The numbers were not newly measured in patent US20090203732A1, “Thiazolones for Use as P13 Kinase Inhibitors” (priority 2006, published 2009), which cites them from elsewhere.

The structures appear in SMILES notation. Like-named read-outs stand apart in the source and are kept apart here.

One series addresses CK2 protein kinase (Homo sapiens, UniProt P68400).

Sequence of CK2 protein kinase (P68400 whole entry): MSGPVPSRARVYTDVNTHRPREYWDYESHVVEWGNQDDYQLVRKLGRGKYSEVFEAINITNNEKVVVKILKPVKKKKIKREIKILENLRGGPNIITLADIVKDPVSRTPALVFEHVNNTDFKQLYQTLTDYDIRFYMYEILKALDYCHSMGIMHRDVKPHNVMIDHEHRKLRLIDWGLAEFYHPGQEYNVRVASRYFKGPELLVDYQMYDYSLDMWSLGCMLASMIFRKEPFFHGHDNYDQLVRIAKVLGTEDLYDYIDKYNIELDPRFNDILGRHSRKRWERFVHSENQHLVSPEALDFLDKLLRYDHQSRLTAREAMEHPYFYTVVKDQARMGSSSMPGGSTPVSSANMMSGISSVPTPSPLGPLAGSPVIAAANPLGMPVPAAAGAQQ

As usually defined, the IC50 is the concentration at which inhibition is half-maximal. For the molecule `O=c1cc(N2CCOCC2)oc2c(-c3ccccc3)cccc12` [LY294002], the concentration for half-maximal inhibition (IC50) in the series with Class I PI3-kinases (each of the Class I PI3-kinases, Fruman et al. 1998, read-out: IC50 against each of these PI3-kinases) is 15 to 20 µM; at CK2 protein kinase, 5 to 10 µM.

In the case of `COC[C@H]1OC(=O)c2coc3c2[C@@]1(C)C1=C(C3=O)[C@@H]2CCC(=O)[C@@]2(C)C[C@H]1OC(C)=O` [wortmannin], the IC50 in the series with Class I PI3-kinases (each of the four members of Class I PI3-kinases, read-out: IC50 against each of the various Class I PI3-kinases) was 0.001 to 0.01 µM.
